Measured values: PubChem BioAssay AID1919000 (Molecular Pharmacology Branch, DTP, NCI, 2023)
pIC50: −log10 of the molar value.

Tested on: 653999-131-R-J2-PDC complex spheroids, growth % test/control
Assay: Anticancer human tumor 653999-131-R-J2-PDC patient-derived lung adenocarcinoma cell line growth inhibition [AhR]
Settings: for pIC50: curve of first compound; for viability, T/C: stronger effect = lower value
Procedure, shortened: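 Spheroids combined tumor cells with HUVEC endothelial cells and human MSCs as stroma. AhR antagonists were paired with standard or investigational drugs, each dosed in half-log steps down from near clinical Cmax, or from 10 microM where Cmax was unknown.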

[1] = second compound 0.1 µM, first compound 0.00949 µM
[2] = second compound 0.1 µM, first compound 0.03 µM
[3] = second compound 0.1 µM, first compound 0.0949 µM
[4] = second compound 0.1 µM, first compound 0.3 µM
[5] = second compound 0.1 µM, first compound 0.949 µM
[6] = second compound 0.1 µM, first compound 3 µM
[7] = second compound 0.316 µM, first compound 0.00949 µM
[8] = second compound 0.316 µM, first compound 0.03 µM
[9] = second compound 0.316 µM, first compound 0.0949 µM
[10] = second compound 0.316 µM, first compound 0.3 µM
[11] = second compound 0.316 µM, first compound 0.949 µM
[12] = second compound 0.316 µM, first compound 3 µM
[13] = second compound 1 µM, first compound 0.00949 µM
[14] = second compound 1 µM, first compound 0.03 µM
[15] = second compound 1 µM, first compound 0.0949 µM
[16] = second compound 1 µM, first compound 0.3 µM
[17] = second compound 1 µM, first compound 0.949 µM
[18] = second compound 1 µM, first compound 3 µM
[19] = second compound 3.16 µM, first compound 0.00949 µM
[20] = second compound 3.16 µM, first compound 0.03 µM
[21] = second compound 3.16 µM, first compound 0.0949 µM
[22] = second compound 3.16 µM, first compound 0.3 µM
[23] = second compound 3.16 µM, first compound 0.949 µM
[24] = second compound 3.16 µM, first compound 3 µM
[25] = second compound 10 µM, first compound 0.00949 µM
[26] = second compound 10 µM, first compound 0.03 µM
[27] = second compound 10 µM, first compound 0.0949 µM
[28] = second compound 10 µM, first compound 0.3 µM
[29] = second compound 10 µM, first compound 0.949 µM
[30] = second compound 10 µM, first compound 3 µM
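Note: spheroids exposed to agents for seven days.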
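Throughout, for viability, T/C: 100% = DMSO vehicle control viability.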

Compound: CC1COCCN1c1cc(C2(S(C)(=N)=O)CC2)nc(-c2ccnc3[nH]ccc23)n1 (stereo not given) + Cc1ccccc1N=Nc1ccc(NC(=O)c2ccnn2C)c(C)c1
- pIC50 (second compound 0.1 µM): 5.05
- pIC50 (second compound 0.316 µM): 5.14
- pIC50 (second compound 1 µM): 5.09
- pIC50 (second compound 3.16 µM): 5.15
- pIC50 (second compound 10 µM): 5.17
- viability, T/C (second compound 0.1 µM, first compound 0.0316 µM): 110%
- viability, T/C (second compound 0.1 µM, first compound 0.1 µM): 90.1%
- viability, T/C (second compound 0.1 µM, first compound 0.316 µM): 110%
- viability, T/C (second compound 0.1 µM, first compound 1 µM): 83.5%
- viability, T/C (second compound 0.1 µM, first compound 3.16 µM): 71.2%
- viability, T/C (second compound 0.1 µM, first compound 10 µM): 47.3%
- viability, T/C (second compound 0.316 µM, first compound 0.0316 µM): 98.3%
- viability, T/C (second compound 0.316 µM, first compound 0.1 µM): 102%
- viability, T/C (second compound 0.316 µM, first compound 0.316 µM): 106%
- viability, T/C (second compound 0.316 µM, first compound 1 µM): 94.5%
- viability, T/C (second compound 0.316 µM, first compound 3.16 µM): 63%
- viability, T/C (second compound 0.316 µM, first compound 10 µM): 45.1%
- viability, T/C (second compound 1 µM, first compound 0.0316 µM): 93.4%
- viability, T/C (second compound 1 µM, first compound 0.1 µM): 95.3%
- viability, T/C (second compound 1 µM, first compound 0.316 µM): 94.5%
- viability, T/C (second compound 1 µM, first compound 1 µM): 84%
- viability, T/C (second compound 1 µM, first compound 3.16 µM): 65.9%
- viability, T/C (second compound 1 µM, first compound 10 µM): 46.6%
- viability, T/C (second compound 3.16 µM, first compound 0.0316 µM): 98%
- viability, T/C (second compound 3.16 µM, first compound 0.1 µM): 86%
- viability, T/C (second compound 3.16 µM, first compound 0.316 µM): 92.8%
- viability, T/C (second compound 3.16 µM, first compound 1 µM): 80.8%
- viability, T/C (second compound 3.16 µM, first compound 3.16 µM): 70.1%
- viability, T/C (second compound 3.16 µM, first compound 10 µM): 41.6%
- viability, T/C (second compound 10 µM, first compound 0.0316 µM): 94.3%
- viability, T/C (second compound 10 µM, first compound 0.1 µM): 83%
- viability, T/C (second compound 10 µM, first compound 0.316 µM): 80.8%
- viability, T/C (second compound 10 µM, first compound 1 µM): 71.2%
- viability, T/C (second compound 10 µM, first compound 3.16 µM): 63.3%
- viability, T/C (second compound 10 µM, first compound 10 µM): 42.8%

Compound: CCN(c1cc(-c2ccc(CN3CCOCC3)cc2)cc(C(=O)NCc2c(C)cc(C)[nH]c2=O)c1C)C1CCOCC1 + Cc1ccccc1N=Nc1ccc(NC(=O)c2ccnn2C)c(C)c1
- pIC50 (second compound 0.1 µM): < 5.52
- pIC50 (second compound 0.316 µM): < 5.52
- pIC50 (second compound 1 µM): < 5.52
- pIC50 (second compound 3.16 µM): < 5.52
- pIC50 (second compound 10 µM): < 5.52
- viability, T/C [1]: 92.9%
- viability, T/C [2]: 102%
- viability, T/C [3]: 97.9%
- viability, T/C [4]: 103%
- viability, T/C [5]: 97.8%
- viability, T/C [6]: 92.7%
- viability, T/C [7]: 93.2%
- viability, T/C [8]: 95.6%
- viability, T/C [9]: 95.5%
- viability, T/C [10]: 95.3%
- viability, T/C [11]: 93.3%
- viability, T/C [12]: 92.5%
- viability, T/C [13]: 91.6%
- viability, T/C [14]: 95.2%
- viability, T/C [15]: 89%
- viability, T/C [16]: 91.8%
- viability, T/C [17]: 88.3%
- viability, T/C [18]: 93%
- viability, T/C [19]: 102%
- viability, T/C [20]: 96.1%
- viability, T/C [21]: 92.8%
- viability, T/C [22]: 89.5%
- viability, T/C [23]: 86.3%
- viability, T/C [24]: 84%
- viability, T/C [25]: 82.1%
- viability, T/C [26]: 80.8%
- viability, T/C [27]: 81.6%
- viability, T/C [28]: 86.1%
- viability, T/C [29]: 78.8%
- viability, T/C [30]: 79.9%

Compound: Nc1ncn(C2CC(O)C(CO)S2)c(=O)n1 (stereo not given) + Cc1ccccc1N=Nc1ccc(NC(=O)c2ccnn2C)c(C)c1
- pIC50 (second compound 0.1 µM): < 6.52
- pIC50 (second compound 0.316 µM): < 6.52
- pIC50 (second compound 1 µM): < 6.52
- pIC50 (second compound 3.16 µM): < 6.52
- pIC50 (second compound 10 µM): < 6.52
- viability, T/C (second compound 0.1 µM, first compound 0.000949 µM): 96.4%
- viability, T/C (second compound 0.1 µM, first compound 0.003 µM): 98.8%
- viability, T/C [1]: 98.2%
- viability, T/C [2]: 101%
- viability, T/C [3]: 95.3%
- viability, T/C [4]: 85.8%
- viability, T/C (second compound 0.316 µM, first compound 0.000949 µM): 98.6%
- viability, T/C (second compound 0.316 µM, first compound 0.003 µM): 105%
- viability, T/C [7]: 105%
- viability, T/C [8]: 105%
- viability, T/C [9]: 92.8%
- viability, T/C [10]: 95.4%
- viability, T/C (second compound 1 µM, first compound 0.000949 µM): 107%
- viability, T/C (second compound 1 µM, first compound 0.003 µM): 102%
- viability, T/C [13]: 109%
- viability, T/C [14]: 109%
- viability, T/C [15]: 88.2%
- viability, T/C [16]: 88.7%
- viability, T/C (second compound 3.16 µM, first compound 0.000949 µM): 102%
- viability, T/C (second compound 3.16 µM, first compound 0.003 µM): 100%
- viability, T/C [19]: 95.1%
- viability, T/C [20]: 94.4%
- viability, T/C [21]: 95.8%
- viability, T/C [22]: 82%
- viability, T/C (second compound 10 µM, first compound 0.000949 µM): 101%
- viability, T/C (second compound 10 µM, first compound 0.003 µM): 103%
- viability, T/C [25]: 110%
- viability, T/C [26]: 95.6%
- viability, T/C [27]: 107%
- viability, T/C [28]: 103%

Compound: O=C(C=Cn1cnc(-c2cc(C(F)(F)F)cc(C(F)(F)F)c2)n1)NNc1cnccn1 + Cc1ccccc1N=Nc1ccc(NC(=O)c2ccnn2C)c(C)c1
- pIC50 (second compound 0.1 µM): 6.08
- pIC50 (second compound 0.316 µM): 6.23
- pIC50 (second compound 1 µM): 6.06
- pIC50 (second compound 3.16 µM): 5.71
- pIC50 (second compound 10 µM): < 5.52
- viability, T/C [1]: 106%
- viability, T/C [2]: 76.8%
- viability, T/C [3]: 72.7%
- viability, T/C [4]: 49.5%
- viability, T/C [5]: 48.9%
- viability, T/C [6]: 48%
- viability, T/C [7]: 91.8%
- viability, T/C [8]: 93.3%
- viability, T/C [9]: 70.5%
- viability, T/C [10]: 55.8%
- viability, T/C [11]: 45.3%
- viability, T/C [12]: 47.9%
- viability, T/C [13]: 94.4%
- viability, T/C [14]: 91.1%
- viability, T/C [15]: 66%
- viability, T/C [16]: 56.9%
- viability, T/C [17]: 49.3%
- viability, T/C [18]: 47.4%
- viability, T/C [19]: 105%
- viability, T/C [20]: 81.1%
- viability, T/C [21]: 75.9%
- viability, T/C [22]: 58.4%
- viability, T/C [23]: 55.7%
- viability, T/C [24]: 47%
- viability, T/C [25]: 85.7%
- viability, T/C [26]: 83.8%
- viability, T/C [27]: 66.7%
- viability, T/C [28]: 53.6%
- viability, T/C [29]: 52%
- viability, T/C [30]: 49%
